In ChEMBL document CHEMBL2034824, “Pyridyl-2,5-diketopiperazines as potent, selective, and orally bioavailable oxytocin antagonists: synthesis, pharmacokinetics, and in vivo potency” (J Med Chem, 2012):
pKi: −log10 of the molar value. ≈ marks a conversion by molar mass, not a printed value.

Experiments:
[1] = biological target: T1, Oxytocin receptor (Homo sapiens, UniProt P30559); test: Displacement of [3H]oxytocin from human oxytocin receptor
T1 sequence (P30559 whole entry): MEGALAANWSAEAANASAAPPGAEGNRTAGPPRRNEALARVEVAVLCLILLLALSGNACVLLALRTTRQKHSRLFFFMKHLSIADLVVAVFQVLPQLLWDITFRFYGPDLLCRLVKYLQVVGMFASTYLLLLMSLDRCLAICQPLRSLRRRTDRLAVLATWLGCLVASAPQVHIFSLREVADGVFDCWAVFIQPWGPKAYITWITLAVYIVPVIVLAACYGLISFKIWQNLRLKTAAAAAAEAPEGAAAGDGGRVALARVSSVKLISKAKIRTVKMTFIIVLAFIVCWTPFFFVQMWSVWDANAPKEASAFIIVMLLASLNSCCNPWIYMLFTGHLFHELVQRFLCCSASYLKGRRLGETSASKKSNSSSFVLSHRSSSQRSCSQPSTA

[2] = AUC in rat at 5 mg/kg, po; assay type: ADME, organism-based; set-up: dose 5 mg/kg, route oral; conditions: plasma
[3] = Clearance in rat at 5 mg/kg; assay type: ADME, organism-based; set-up: dose 5 mg/kg; conditions: in vivo
[4] = Oral bioavailability in rat at 5 mg/kg; assay type: ADME, organism-based; conditions: in vivo
[5] = Aqueous solubility of the compound by HPLC analysis; assay type: physicochemical
[6] = Lipophilicity, log D of the compound by HPLC analysis; assay type: physicochemical
[7] = biological target: serum albumin (Homo sapiens, UniProt P02768); test: Binding affinity to human serum albumin; assay type: ADME; conditions: read-out: PB (converted)
Sequence of serum albumin (Homo sapiens, UniProt P02768) (P02768 whole entry): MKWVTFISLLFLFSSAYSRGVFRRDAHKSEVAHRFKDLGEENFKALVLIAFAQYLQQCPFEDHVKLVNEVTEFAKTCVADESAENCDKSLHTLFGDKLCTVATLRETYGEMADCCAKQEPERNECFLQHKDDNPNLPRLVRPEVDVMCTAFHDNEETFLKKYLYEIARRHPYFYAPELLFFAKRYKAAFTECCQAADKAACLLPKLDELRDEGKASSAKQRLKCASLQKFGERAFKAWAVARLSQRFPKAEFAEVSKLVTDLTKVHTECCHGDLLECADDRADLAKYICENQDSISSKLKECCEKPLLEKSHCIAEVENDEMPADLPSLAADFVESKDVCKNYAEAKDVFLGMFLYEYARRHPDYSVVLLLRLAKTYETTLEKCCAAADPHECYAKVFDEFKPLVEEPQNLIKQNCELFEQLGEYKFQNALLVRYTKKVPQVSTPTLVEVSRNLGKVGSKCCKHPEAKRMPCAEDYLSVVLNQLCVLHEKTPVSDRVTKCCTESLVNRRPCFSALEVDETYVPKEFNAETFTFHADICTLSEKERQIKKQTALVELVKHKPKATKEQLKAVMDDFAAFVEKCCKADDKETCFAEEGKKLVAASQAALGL

[8] = biological target: serum albumin (Rattus norvegicus, UniProt P02770); test: Binding affinity to rat serum albumin; assay type: ADME; conditions: read-out: PB (converted)
Sequence of serum albumin (Rattus norvegicus, UniProt P02770) (P02770 whole entry): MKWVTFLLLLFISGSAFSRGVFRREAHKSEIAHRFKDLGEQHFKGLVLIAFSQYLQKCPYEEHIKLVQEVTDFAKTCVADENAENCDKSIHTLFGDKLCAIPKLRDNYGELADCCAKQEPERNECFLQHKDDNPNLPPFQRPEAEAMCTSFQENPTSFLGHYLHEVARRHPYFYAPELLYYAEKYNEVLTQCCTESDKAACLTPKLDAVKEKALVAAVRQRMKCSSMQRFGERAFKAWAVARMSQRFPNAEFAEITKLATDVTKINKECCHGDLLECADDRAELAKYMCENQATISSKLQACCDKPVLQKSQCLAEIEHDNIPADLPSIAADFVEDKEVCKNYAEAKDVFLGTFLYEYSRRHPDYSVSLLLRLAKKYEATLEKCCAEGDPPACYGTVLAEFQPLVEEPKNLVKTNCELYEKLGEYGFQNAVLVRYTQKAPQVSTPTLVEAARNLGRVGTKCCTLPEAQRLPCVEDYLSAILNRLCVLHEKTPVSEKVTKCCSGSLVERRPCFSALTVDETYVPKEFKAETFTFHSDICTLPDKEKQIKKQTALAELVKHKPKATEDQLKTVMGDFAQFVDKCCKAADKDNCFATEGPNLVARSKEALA

[9] = system: Liver microsomes; test: Intrinsic clearance in rat liver microsomes; assay type: ADME, Microsome
[10] = system: Liver; test: Intrinsic clearance in dog liver microsomes; assay type: ADME, Canis lupus familiaris, Microsome
[11] = Intrinsic clearance in cynomolgus monkey liver microsomes; assay type: ADME, Macaca fascicularis, Microsome
[12] = system: Liver microsomes; test: Intrinsic clearance in human liver microsomes; assay type: ADME, Microsome
[13] = AUC in dog at 0.6 mg/kg, po; assay type: ADME, organism-based, Canis lupus familiaris; set-up: dose 0.6 mg/kg, route oral; conditions: plasma
[14] = Clearance in dog at 0.6 mg/kg; assay type: ADME, organism-based, Canis lupus familiaris; set-up: dose 0.6 mg/kg; conditions: in vivo
[15] = Oral bioavailability in dog at 0.6 mg/kg; assay type: ADME, organism-based, Canis lupus familiaris; conditions: in vivo

Structure (SMILES) | pKi [1] | AUC [2] [ng·h/mL] | clearance [3] [mL/min/kg] | bioavailability [4] [%] | solubility [5] [µg/mL] | logD [6] | fraction unbound [7] | fraction unbound [8] | CLH [9] [mL/min/g] | CLH [10] [mL/min/g] | CLH [11] [mL/min/g] | CLH [12] [mL/min/g] | AUC [13] [ng·h/mL] | clearance [14] [mL/min/kg] | bioavailability [15] [%]
CC[C@H](C)[C@@H]1C(=O)N[C@H](C2Cc3ccccc3C2)C(=O)N1[C@@H](C(=O)NC)c1cnc(C)cc1C | 10.20 | 407 | 23 | 11 |  |  |  |  | 1 | 4 | 20 | 7 |  |  | 
CC[C@H](C)[C@@H]1C(=O)N[C@H](C2Cc3ccccc3C2)C(=O)N1[C@@H](C(=O)NC)c1ccc(C)nc1C | 9.40 | 1730 | 25 | 51 |  |  |  |  | 1 | 5 | 6 | 5 | 58 | 22 | 13
COc1ccc([C@H](C(=O)N2CCOCC2)N2C(=O)[C@@H](C3Cc4ccccc4C3)NC(=O)[C@H]2CC(C)C)cn1 | 9.60 | 2130 | 35 | 88 | 249 (≈ 478 µM) | 2.7 | 0.24 | 0.22 |  |  |  |  |  |  | 
CC[C@H](C)[C@@H]1C(=O)N[C@H](C2Cc3ccccc3C2)C(=O)N1[C@@H](C(=O)N1CCOCC1)c1ccc(C)nc1 | 9.80 | 1450 | 27 | 54 | > 268 |  |  |  | 1 | 2 | 6 | 3 | 55 | 23 | 14
CC[C@H](C)[C@@H]1C(=O)N[C@H](C2Cc3ccccc3C2)C(=O)N1[C@@H](C(=O)NC)c1cc(C)cnc1C | 8.90 |  |  |  |  |  |  |  | 1 | 3 | 5 | 3 |  |  | 
CC[C@H](C)[C@@H]1C(=O)N[C@H](C2Cc3ccccc3C2)C(=O)N1[C@@H](C(=O)N1CCOCC1)c1cnc(C)cc1C | 10.30 | 1110 |  |  |  |  |  |  | 1 | 4 | 16 | 1 |  |  | 
CC[C@H](C)[C@@H]1C(=O)N[C@H](C2Cc3ccccc3C2)C(=O)N1[C@@H](C(=O)N(C)C)c1cc(C)cnc1C | 9.10 | 1370 |  |  |  |  |  |  | 1 | 2 | 13 | 5 |  |  | 
CCC(CC)[C@@H]1C(=O)N[C@H](C2Cc3ccccc3C2)C(=O)N1[C@@H](C(=O)N1CCOCC1)c1ccc(C)nc1 | 10.60 | 1380 | 23 | 55 |  |  |  |  | 1 | 5 | 18 | 12 |  |  | 
Cc1ccc([C@H](C(=O)N2CCOCC2)N2C(=O)[C@@H](C3Cc4ccccc4C3)NC(=O)[C@H]2CC2CC2)cn1 | 8.30 |  |  |  | > 258 |  |  |  |  |  |  |  |  |  | 
CC[C@H](C)[C@@H]1C(=O)N[C@H](C2Cc3ccccc3C2)C(=O)N1[C@@H](C(=O)N(C)C)c1cnc(C)cc1C | 10.40 | 2680 |  |  |  |  |  |  | 1 | 1 | 32 | 9 | 140 | 12 | 17
CC[C@H](C)[C@@H]1C(=O)N[C@H](C2Cc3ccccc3C2)C(=O)N1[C@@H](C(=O)N1CCOCC1)c1cc(C)cnc1C | 9.10 |  |  |  |  |  |  |  |  |  |  |  |  |  | 
CCC(CC)[C@@H]1C(=O)N[C@H](C2Cc3ccccc3C2)C(=O)N1[C@@H](C(=O)N(C)C)c1ccc(C)nc1C | 10.50 |  |  |  |  |  |  |  | 3 | 1 | 29 | 18 |  |  | 
Cc1ccc([C@H](C(=O)N2CCOCC2)N2C(=O)[C@@H](C3Cc4ccccc4C3)NC(=O)[C@H]2CC(C)(C)C)cn1 | 10.10 | 770 | 20 | 18 | 213 (≈ 411 µM) |  |  |  | 1 | 9 | 21 | 4 | 21 | 24 | 5
CCC(CC)[C@@H]1C(=O)N[C@H](C2Cc3ccccc3C2)C(=O)N1[C@@H](C(=O)NC)c1ccc(C)nc1C | 10.30 | 1240 |  |  |  |  |  |  | 2 |  | 31 |  |  |  | 
CC[C@@H](C)[C@@H]1C(=O)N[C@H](C2Cc3ccccc3C2)C(=O)N1[C@@H](C(=O)N1CCOCC1)c1ccc(C)nc1 | 9.30 | 1590 | 39 | 44 | > 280 |  |  |  | 1 | 2 | 8 | 4 | 138 | 20 | 31

Results, then the compound that gave them:

pKi [1] | AUC [2] [ng·h/mL] | clearance [3] [mL/min/kg] | bioavailability [4] [%] | solubility [5] [µg/mL] | logD [6] | fraction unbound [7] | fraction unbound [8] | CLH [9] [mL/min/g] | CLH [10] [mL/min/g] | CLH [11] [mL/min/g] | CLH [12] [mL/min/g] | AUC [13] [ng·h/mL] | clearance [14] [mL/min/kg] | bioavailability [15] [%] | Structure (SMILES)
9.30 | 920 | 33 | 36 | 241 (≈ 493 µM) | 2.3 | 0.24 | 0.3 |  |  |  |  |  |  |  | Cc1ccc([C@H](C(=O)N2CCCC2)N2C(=O)[C@@H](C3Cc4ccccc4C3)NC(=O)[C@H]2CC(C)C)cn1
9.40 | 2230 | 23 | 62 | 216 (≈ 451 µM) | 2.7 | 0.08 | 0.14 |  |  |  |  | 158 | 8 | 13 | COc1ccc([C@H](C(=O)N(C)C)N2C(=O)[C@@H](C3Cc4ccccc4C3)NC(=O)[C@H]2CC(C)C)cn1
8.50 |  |  |  | > 240 | 1.3 | 0.39 | 0.63 |  |  |  |  |  |  |  | CC(C)C[C@@H]1C(=O)N[C@H](C2Cc3ccccc3C2)C(=O)N1[C@@H](C(=O)N(C)C)c1ccc(=O)[nH]c1
9.60 | 135 |  |  | 233 (≈ 474 µM) | 2.6 | 0.26 | 0.18 |  |  |  |  |  |  |  | CC(C)C[C@@H]1C(=O)N[C@H](C2Cc3ccccc3C2)C(=O)N1[C@@H](C(=O)N(C)C)c1ccc(N(C)C)nc1
9.00 | 3360 | 23 | 82 | > 237 |  |  |  | 1 | 1 | 11 | 3 |  |  |  | CC[C@@H](C)[C@@H]1C(=O)N[C@H](C2Cc3ccccc3C2)C(=O)N1[C@@H](C(=O)N(C)C)c1ccc(C)nc1
9.40 | 811 |  |  | > 253 | 2.1 | 0.33 | 0.38 |  |  |  |  | 53 | 17 | 10 | Cc1ccc([C@H](C(=O)N2CCOCC2)N2C(=O)[C@@H](C3Cc4ccccc4C3)NC(=O)[C@H]2CC(C)C)cn1
9.70 | 2270 | 19 | 62 | > 254 |  |  |  | 1 | 1 | 9 | 2 | 347 | 10 | 39 | CC[C@H](C)[C@@H]1C(=O)N[C@H](C2Cc3ccccc3C2)C(=O)N1[C@@H](C(=O)N(C)C)c1ccc(C)nc1
10.30 | 1810 | 20 | 36 |  |  |  |  | 2 | 1 | 12 | 11 | 255 | 19 | 47 | CCC(CC)[C@@H]1C(=O)N[C@H](C2Cc3ccccc3C2)C(=O)N1[C@@H](C(=O)N(C)C)c1ccc(C)nc1
9.50 | 80 |  |  | 235 (≈ 440 µM) | 2.9 | 0.3 | 0.29 |  |  |  |  |  |  |  | CC(C)C[C@@H]1C(=O)N[C@H](C2Cc3ccccc3C2)C(=O)N1[C@@H](C(=O)N1CCOCC1)c1ccc(N(C)C)nc1
9.00 | 24 | 28 | < 1 | > 242 |  |  |  | 1 |  | 1 | 1 | 73 | 14 | 11 | CC[C@H](C)[C@@H]1C(=O)N[C@H](C2Cc3ccccc3C2)C(=O)N1[C@@H](C(=O)N(C)C)c1ccc(C)[n+]([O-])c1
10.20 | 618 |  |  | > 242 |  |  |  | 3 | 1 | 8 | 6 |  |  |  | Cc1ccc([C@H](C(=O)N(C)C)N2C(=O)[C@@H](C3Cc4ccccc4C3)NC(=O)[C@H]2CC(C)(C)C)cn1
8.30 |  |  |  | 230 (≈ 499 µM) |  |  |  |  |  |  |  |  |  |  | Cc1ccc([C@H](C(=O)N(C)C)N2C(=O)[C@@H](C3Cc4ccccc4C3)NC(=O)[C@H]2CC2CC2)cn1
